System: MSH3
Experiment: QPCR assay for levels of MSH3 upon compound treatment in HEK293T or AD293 cells (fold-change of MSH3 transcript, EC50 of MSH3 downregulation; total MSH3 exons 13/14, exons 20/21; Table 8)
Type: cell-based
Settings: for EC50: EC50 of MSH3 downregulation, XtalPi; for mrna remaining at 1 µM / mrna remaining at 10 µM: Homo sapiens, fold-change of the MSH3 transcript, normalized to GAPDH; for mrna remaining at 1 µM: 1 μM compound; for mrna remaining at 10 µM: 10 μM compound
How it was run: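 MSH3 mRNA was quantified by TaqMan qPCR covering exons 13/14, exons 20/21, exon 13/PE14A and exon 20/PE21A, with GAPDH as reference. Cells used were HEK293T or AD293, treated with compound at 1 μM and […].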

SMILES | EC50 [nM] | mrna remaining at 1 µM [%] | mrna remaining at 10 µM [%]
CN(c1ccc(N2Cc3ncc(-c4nn(C)nc4Cl)cc3C2=O)nn1)C1CC(C)(C)NC2(CCC2)C1 (centres unmarked) [Compound 621, 3-(5-chloro-2-methyl-2H-1,2,3-triazol-4-yl)-6-(6-((6,6-dimethyl-5-azaspiro[3.5]nonan-8-yl)(methyl)amino)pyridazin-3-yl)-6,7-dihydro-5H-pyrrolo[3,4-b]pyridin-5-one] | 229 | – | –
Cc1nn(C)cc1-c1cnc2c(n1)C(=O)N(c1ccc(O[C@H]3C[C@]4(C)CC[C@](C)(C3)N4)nn1)C2 [Compound 622, 3-(1,3-dimethyl-1H-pyrazol-4-yl)-6-(6-(((1R,3s,5S)-1,5-dimethyl-8-azabicyclo[3.2.1]octan-3-yl)oxy)pyridazin-3-yl)-6,7-dihydro-5H-pyrrolo[3,4-b]pyrazin-5-one] | – | 76 | 30
Cc1nn(C)nc1-c1cnc2c(n1)C(=O)N(c1ccc(O[C@H]3C[C@]4(C)CC[C@](C)(C3)N4)nn1)C2 [Compound 623, 3-(2,5-dimethyl-2H-1,2,3-triazol-4-yl)-6-(6-(((1R,3s,5S)-1,5-dimethyl-8-azabicyclo[3.2.1]octan-3-yl)oxy)pyridazin-3-yl)-6,7-dihydro-5H-pyrrolo[3,4-b]pyrazin-5-one] | 2990 | 60 | 13
Cc1nn(C)nc1-c1cnc2c(n1)C(=O)N(c1ccc(OC3CC(C)(C)NC(C)(C)C3)nn1)C2 [Compound 624, 3-(2,5-dimethyl-2H-1,2,3-triazol-4-yl)-6-(6-((2,2,6,6-tetramethylpiperidin-4-yl)oxy)pyridazin-3-yl)-6,7-dihydro-5H-pyrrolo[3,4-b]pyrazin-5-one] | – | 60 | 12
CN(c1ccc(N2Cc3ncc(-c4cnn(CC(C)(C)O)c4)nc3C2=O)nn1)[C@H]1C[C@]2(C)CC[C@](C)(C1)N2 [Compound 625, 6-(6-(((1R,3s,5S)-1,5-dimethyl-8-azabicyclo[3.2.1]octan-3-yl)(methyl)amino)pyridazin-3-yl)-3-(1-(2-hydroxy-2-methylpropyl)-1H-pyrazol-4-yl)-6,7-dihydro-5H-pyrrolo[3,4-b]pyrazin-5-one] | – | 81 | 108
CN(c1ccc(N2Cc3ncc(-c4nn(C)nc4Cl)nc3C2=O)nn1)C1CC(C)(C)NC2(CCC2)C1 (centres unmarked) [Compound 626, 3-(5-chloro-2-methyl-2H-1,2,3-triazol-4-yl)-6-(6-((6,6-dimethyl-5-azaspiro[3.5]nonan-8-yl)(methyl)amino)pyridazin-3-yl)-6,7-dihydro-5H-pyrrolo[3,4-b]pyrazin-5-one] | – | 98 | 28
CN(c1ccc(N2Cc3ncc(-c4nn(C)nc4Cl)nc3C2=O)nn1)[C@H]1C[C@]2(C)CC[C@](C)(C1)N2 [Compound 627, 3-(5-chloro-2-methyl-2H-1,2,3-triazol-4-yl)-6-(6-(((1R,3s,5S)-1,5-dimethyl-8-azabicyclo[3.2.1]octan-3-yl)(methyl)amino)pyridazin-3-yl)-6,7-dihydro-5H-pyrrolo[3,4-b]pyrazin-5-one] | – | 37 | 11
Cn1nc(Cl)c(-c2cnc3c(n2)C(=O)N(c2ccc(OC4CC(C)(C)NC5(CCC5)C4)nn2)C3)n1 (centres unmarked) [Compound 628, 3-(5-chloro-2-methyl-2H-1,2,3-triazol-4-yl)-6-(6-((6,6-dimethyl-5-azaspiro[3.5]nonan-8-yl)oxy)pyridazin-3-yl)-6,7-dihydro-5H-pyrrolo[3,4-b]pyrazin-5-one] | – | 101 | 20
CC(C)[C@H]1CN(c2ccc(N3Cc4c(F)cc(-c5cnn(C)n5)cc4C3=O)nn2)CCN1 [Compound 629, (S)-4-fluoro-2-(6-(3-isopropylpiperazin-1-yl)pyridazin-3-yl)-6-(2-methyl-2H-1,2,3-triazol-4-yl)isoindolin-1-one] | – | 74 | 62
Cn1ncc(-c2cc(F)c3c(c2)C(=O)N(c2ccc(N4CCN[C@@H](C(C)(C)C)C4)nn2)C3)n1 [Compound 630, (S)-2-(6-(3-(tert-butyl)piperazin-1-yl)pyridazin-3-yl)-4-fluoro-6-(2-methyl-2H-1,2,3-triazol-4-yl)isoindolin-1-one] | – | 106 | 72
Cn1ncc(-c2cc(F)c3c(c2)C(=O)N(c2ccc(O[C@H]4C[C@]5(C)CC[C@](C)(C4)N5)nn2)C3)n1 [Compound 631, 2-(6-(((1R,3s,5S)-1,5-dimethyl-8-azabicyclo[3.2.1]octan-3-yl)oxy)pyridazin-3-yl)-4-fluoro-6-(2-methyl-2H-1,2,3-triazol-4-yl)isoindolin-1-one] | – | 86 | 69
CN(c1ccc(N2Cc3c(F)cc(-c4cnn(CC(C)(C)O)c4)cc3C2=O)nn1)[C@H]1C[C@]2(C)CC[C@](C)(C1)N2 [Compound 632, 2-(6-(((1R,3s,5S)-1,5-dimethyl-8-azabicyclo[3.2.1]octan-3-yl)(methyl)amino)pyridazin-3-yl)-4-fluoro-6-(1-(2-hydroxy-2-methylpropyl)-1H-pyrazol-4-yl)isoindolin-1-one] | – | 72 | 57
CN(c1ccc(N2Cc3c(F)cc(-c4cnn(CC(C)(C)O)n4)cc3C2=O)nn1)C1CC(C)(C)NC(C)(C)C1 [Compound 633, 4-fluoro-6-(2-(2-hydroxy-2-methylpropyl)-2H-1,2,3-triazol-4-yl)-2-(6-(methyl(2,2,6,6-tetramethylpiperidin-4-yl)amino)pyridazin-3-yl)isoindolin-1-one] | – | 109 | 89
CN(c1ccc(N2Cc3c(F)cc(-c4cnn(CC(C)(C)O)n4)cc3C2=O)nn1)[C@H]1C[C@]2(C)CC[C@](C)(C1)N2 [Compound 634, 2-(6-(((1R,3s,5S)-1,5-dimethyl-8-azabicyclo[3.2.1]octan-3-yl)(methyl)amino)pyridazin-3-yl)-4-fluoro-6-(2-(2-hydroxy-2-methylpropyl)-2H-1,2,3-triazol-4-yl)isoindolin-1-one] | – | 63 | 76
CC(C)(O)Cn1ncc(-c2cc(F)c3c(c2)C(=O)N(c2ccc(OC4CC(C)(C)NC(C)(C)C4)nn2)C3)n1 [Compound 635, 4-fluoro-6-(2-(2-hydroxy-2-methylpropyl)-2H-1,2,3-triazol-4-yl)-2-(6-((2,2,6,6-tetramethylpiperidin-4-yl)oxy)pyridazin-3-yl)isoindolin-1-one] | – | 54 | 117
C[C@@H]1CN(c2ccc(N3Cc4c(F)cc(-c5nn(C)nc5Cl)cc4C3=O)nn2)C[C@H](C)N1 [Compound 636, 6-(5-chloro-2-methyl-2H-1,2,3-triazol-4-yl)-2-(6-((3S,5R)-3,5-dimethylpiperazin-1-yl)pyridazin-3-yl)-4-fluoroisoindolin-1-one] | – | 95 | 41
Cn1nc(Cl)c(-c2cc(F)c3c(c2)C(=O)N(c2ccc(N4CCN[C@@H](C(C)(C)C)C4)nn2)C3)n1 [Compound 637, (S)-2-(6-(3-(tert-butyl)piperazin-1-yl)pyridazin-3-yl)-6-(5-chloro-2-methyl-2H-1,2,3-triazol-4-yl)-4-fluoroisoindolin-1-one] | – | 150 | 31
CC(C)[C@@H]1CN(c2ccc(N3Cc4c(F)cc(-c5nn(C)nc5Cl)cc4C3=O)nn2)CCN1 [Compound 638, (R)-6-(5-chloro-2-methyl-2H-1,2,3-triazol-4-yl)-4-fluoro-2-(6-(3-isopropylpiperazin-1-yl)pyridazin-3-yl)isoindolin-1-one] | – | 112 | 22
Cc1nn(C)nc1-c1cc(F)c2c(c1)C(=O)N(c1ccc(N3CCNC(C)CC3)nn1)C2 (centres unmarked) [Compound 639, 6-(2,5-dimethyl-2H-1,2,3-triazol-4-yl)-4-fluoro-2-(6-(5-methyl-1,4-diazepan-1-yl)pyridazin-3-yl)isoindolin-1-one] | – | 118 | 55
Cc1nn(C)nc1-c1cc(F)c2c(c1)C(=O)N(c1ccc(N3CCN[C@H](C(C)C)C3)nn1)C2 [Compound 640, (R)-6-(2,5-dimethyl-2H-1,2,3-triazol-4-yl)-4-fluoro-2-(6-(3-isopropylpiperazin-1-yl)pyridazin-3-yl)isoindolin-1-one] | – | 99 | 25
Cc1nn(C)nc1-c1cc(F)c2c(c1)C(=O)N(c1ccc(N3C[C@@H](C)N[C@@H](C)C3)nn1)C2 [Compound 641, 6-(2,5-dimethyl-2H-1,2,3-triazol-4-yl)-2-(6-((3S,5R)-3,5-dimethylpiperazin-1-yl)pyridazin-3-yl)-4-fluoroisoindolin-1-one] | – | 96 | 34
Cn1nc(Cl)c(-c2cc(F)c3c(c2)C(=O)N(c2ccc(N4CCNC(C)(C)C4)nn2)C3)n1 [Compound 642, 6-(5-chloro-2-methyl-2H-1,2,3-triazol-4-yl)-2-(6-(3,3-dimethylpiperazin-1-yl)pyridazin-3-yl)-4-fluoroisoindolin-1-one] | – | 91 | 21
Cc1nn(C)nc1-c1cc(F)c2c(c1)C(=O)N(c1ccc(N3CCNC(C)(C)C3)nn1)C2 [Compound 643, 6-(2,5-dimethyl-2H-1,2,3-triazol-4-yl)-2-(6-(3,3-dimethylpiperazin-1-yl)pyridazin-3-yl)-4-fluoroisoindolin-1-one] | – | 109 | 72
Cn1nc(Cl)c(-c2cc(F)c3c(c2)C(=O)N(c2ccc(N4CC5(CCNC5)C4)nn2)C3)n1 [Compound 644, 2-(6-(2,6-diazaspiro[3.4]octan-2-yl)pyridazin-3-yl)-6-(5-chloro-2-methyl-2H-1,2,3-triazol-4-yl)-4-fluoroisoindolin-1-one] | – | 87 | 97
Cn1nc(Cl)c(-c2cc(F)c3c(c2)C(=O)N(c2ccc(N4CC5CCC(C4)NC5)nn2)C3)n1 (centres unmarked) [Compound 645] | – | 87 | 104

Source: patent US20260315464A1, “COMPOSITIONS, METHODS, AND SYSTEMS FOR MODULATING SPLICING OF MSH3” (REVIR THERAPEUTICS, INC., priority 2023, published 2026)
